The record followed here is US12077503B2, “Substituted cyclic amides and their use as herbicides” (FMC CORPORATION, priority 2015, dated 2024).

Common to all, as to assay type: in vivo
The test system of assay [1] is giant foxtail (Setaria faberii). The experiment in a line: Test A preemergence. Conditions: Setaria faberi, pre-emergence, 240 h; for pest or weed control at 125 g/ha: 125 g ai/ha; for pest or weed control at 500 g/ha: 500 g ai/ha. The method, boiled down: (§1)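 In a loam soil and sand blend, planted seeds got a preemergence directed soil spray, and young plants at the one- to two-leaf stage, 2–10 cm high, got a postemergence application; ~10 d greenhouse hold; injury rated visually, 0 = none, 100 = complete control.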

The test system of assay [2] is Galium (catchweed bedstraw, Galium aparine). The experiment in a line: Test A postemergence. Conditions: Galium, post-emergence, 240 h, postemergence; for pest or weed control at 125 g/ha: 125 g ai/ha. The method, boiled down: as §1
The test system of a further assay is Kochia (Kochia scoparia). Kind of assay: Test A postemergence. Conditions: Bassia scoparia, post-emergence, 240 h, postemergence; for pest or weed control at 125 g/ha: 125 g ai/ha. The method, boiled down:
as §1

In assay [3] the test system is barnyardgrass (Echinochloa crus-galli). Kind of assay: Test A postemergence. The following applies: Echinochloa crus-galli, post-emergence, 240 h, postemergence; for pest or weed control at 125 g/ha: 125 g ai/ha. The method, boiled down: as §1
In assay [4] the test system is blackgrass (Alopecurus myosuroides). Kind of assay: Test A postemergence. Conditions: Alopecurus myosuroides, post-emergence, 240 h, postemergence; for pest or weed control at 125 g/ha: 125 g ai/ha. Put shortly:
as §1

The subject of another assay is corn (Zea mays). Kind of assay: Test A postemergence. Conditions: Zea mays, post-emergence, 240 h, postemergence; for plant injury at 125 g/ha: 125 g ai/ha. The method, boiled down:
as §1

Assay [5] has as its system giant foxtail (Setaria faberii). Kind of assay: Test A postemergence. Conditions: Setaria faberi, post-emergence, 240 h, postemergence; for pest or weed control at 125 g/ha: 125 g ai/ha. The method, boiled down:
as §1

Assay [6] relates to pigweed (Amaranthus retroflexus). Kind of assay: Test A postemergence. Conditions: Amaranthus retroflexus, post-emergence, 240 h, postemergence; for pest or weed control at 125 g/ha: 125 g ai/ha. The method, boiled down: as §1
Assay [7] concerns ragweed (common ragweed, Ambrosia elatior). The experiment in a line: Test A postemergence. The following applies: Ambrosia artemisiifolia, post-emergence, 240 h, postemergence; for pest or weed control at 125 g/ha: 125 g ai/ha. Put shortly:
as §1

For assay [8], the system named is ryegrass, Italian (Italian ryegrass, Lolium multiflorum). Kind of assay: Test A postemergence. The following applies: Lolium multiflorum, post-emergence, 240 h, postemergence; for pest or weed control at 125 g/ha: 125 g ai/ha. The method, boiled down: as §1
Assay [9] has as its system wheat (Triticum aestivum). Kind of assay: Test A postemergence. The following applies: Triticum aestivum, post-emergence, 240 h, postemergence; for plant injury at 125 g/ha: 125 g ai/ha. Put shortly: as §1
Assay [10] has as its system barnyardgrass (Echinochloa crus-galli). Kind of assay: Test B flooded paddy test. Conditions: Echinochloa crus-galli, Flood, 250 g ai/ha, read-out: Barnyardgrass plant response rating. The method, boiled down:
(§2)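 Evaluation by eye, against controls, occurred 13–15 d post-treatment in a greenhouse, using a 0 (no effect) to 100 (complete control) scale. Application was into the paddy water, 3 cm deep over the soil, on 2-leaf plants.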

Assay [11] concerns ducksalad (Heteranthera limosa). The experiment in a line: Test B flooded paddy test. The following applies: Heteranthera limosa, Flood, 250 g ai/ha, read-out: Ducksalad plant response rating. The method, boiled down: as §2
The subject of the next assay is rice (Oryra sativa). The experiment in a line: Test B flooded paddy test. The following applies: Oryza sativa, Flood, 250 g ai/ha, read-out: Rice plant response rating. The method, boiled down: as §2
Assay [12] relates to sedge, umbrella (small-flower umbrella sedge, Cyperus difformis). The experiment in a line: Test B flooded paddy test. Conditions: Cyperus difformis, Flood, 250 g ai/ha, read-out: Sedge, Umbrella plant response rating. The method, boiled down: as §2
Setting [13] is: preemergence, 0 to 100 scale where 0 is no effect and 100 is complete control, read-out: Foxtail, Giant plant response rating.
Setting [14] is: scale of 0 to 100 where 0 is no effect and 100 is complete control.
The mark [15] stands for this setting: 0 to 100 scale where 0 is no effect and 100 is complete control.

Molecules are shown by their SMILES. Read-outs that look alike come from different tables or passages of the source.

For the molecule `Cc1cc(F)cc([C@H]2CN(C)C(=O)[C@@H]2C(=O)Nc2cccc(F)c2F)c1` [Compound 849], the pest or weed control at 125 g/ha in assay [1] (setting [13]) amounted to 90%; in assay [2] (visual injury rating after approximately 10 d, read-out: Galium plant response rating (0 to 100 scale, 0 no effect, 100 complete control)) it was 60%; in the assay with Kochia (Kochia scoparia) (visual injury rating after approximately 10 d, read-out: Kochia plant response rating (0 to 100 scale, 0 no effect, 100 complete control)) it was 0%; in assay [3] (visual injury rating after approximately 10 d, read-out: Barnyardgrass plant response rating (0 to 100 scale, 0 no effect, 100 complete control)), 90%; in assay [4] (visual injury rating after approximately 10 d, read-out: Blackgrass plant response rating (0 to 100 scale, 0 no effect, 100 complete control)) it was 30%; in [5] (visual injury rating after approximately 10 d, read-out: Foxtail, Giant plant response rating (0 to 100 scale, 0 no effect, 100 complete control)) it was 90%. Besides, the pest or weed control at 125 g/ha stood at 0% in [6] (visual injury rating after approximately 10 d, read-out: Pigweed plant response rating (0 to 100 scale, 0 no effect, 100 complete control)); 0% in assay [7] (visual injury rating after approximately 10 d, read-out: Ragweed plant response rating (0 to 100 scale, 0 no effect, 100 complete control)); 0% in assay [8] (visual injury rating after approximately 10 d, read-out: Ryegrass, Italian plant response rating (0 to 100 scale, 0 no effect, 100 complete control)). The pest or weed control at 500 g/ha in assay [1] (Preemergence, visual injury vs untreated controls after approximately 10 d, read-out: Foxtail, Giant plant response rating (0 to 100 scale where 0 is no effect and 100 is complete control)) was determined as 90%. The plant injury at 125 g/ha with corn (Zea mays) (visual injury rating after approximately 10 d, read-out: Corn plant response rating (0 to 100 scale, 0 no effect, 100 complete control)) is 70%; in assay [9] (visual injury rating after approximately 10 d, read-out: Wheat plant response rating (0 to 100 scale, 0 no effect, 100 complete control)), 30%. Besides, the pest or weed control at 250 g/ha in [10] (setting [14]) was determined as 75%; in assay [11] (setting [14]), 100%; with rice (Oryra sativa) (setting [14]), 15%; in assay [12] (setting [14]) it was 0%.
Take `O=C1NC[C@H](c2cc(C(F)F)cs2)[C@H]1C(=O)Nc1cccc(F)c1F` [Compound 1117]: the pest or weed control at 125 g/ha was 50% in assay [1] (preemergence, 0 to 100 scale where 0 is no effect and 100 is complete control, approx. 10 d, read-out: Foxtail, Giant plant response rating); 40% in assay [2] (visual injury on 0 to 100 scale (0 no effect, 100 complete control), approx. 10 d, read-out: Galium plant response rating); 20% in the assay with Kochia (Kochia scoparia) (visual injury on 0 to 100 scale (0 no effect, 100 complete control), approx. 10 d, read-out: Kochia plant response rating); 80% in assay [3] (visual injury on 0 to 100 scale (0 no effect, 100 complete control), approx. 10 d, read-out: Barnyardgrass plant response rating); 0% in assay [4] (visual injury on 0 to 100 scale (0 no effect, 100 complete control), approx. 10 d, read-out: Blackgrass plant response rating); 20% in assay [5] (visual injury on 0 to 100 scale (0 no effect, 100 complete control), approx. 10 d, read-out: Foxtail, Giant plant response rating). The pest or weed control at 125 g/ha amounted to 0% in [6] (visual injury on 0 to 100 scale (0 no effect, 100 complete control), approx. 10 d, read-out: Pigweed plant response rating); 0% in assay [7] (visual injury on 0 to 100 scale (0 no effect, 100 complete control), approx. 10 d, read-out: Ragweed plant response rating); 0% in assay [8] (visual injury on 0 to 100 scale (0 no effect, 100 complete control), approx. 10 d, read-out: Ryegrass, Italian plant response rating). In addition, the pest or weed control at 500 g/ha in [1] (setting [13]) was 90%; in assay [2] (500 g ai/ha, 0 to 100 scale, 0 is no effect, 100 is complete control, read-out: Galium plant response rating) it was 40%; in the assay with Kochia (Kochia scoparia) (500 g ai/ha, 0 to 100 scale, 0 is no effect, 100 is complete control, read-out: Kochia plant response rating), 40%; in [3] (500 g ai/ha, 0 to 100 scale, 0 is no effect, 100 is complete control, read-out: Barnyardgrass plant response rating), 90%; in assay [4] (500 g ai/ha, 0 to 100 scale, 0 is no effect, 100 is complete control, read-out: Blackgrass plant response rating), 40%; in assay [5] (500 g ai/ha, 0 to 100 scale, 0 is no effect, 100 is complete control, read-out: Foxtail, Giant plant response rating), 70%. For the same molecule, the pest or weed control at 500 g/ha in [6] (500 g ai/ha, 0 to 100 scale, 0 is no effect, 100 is complete control, read-out: Pigweed plant response rating) stood at 0%; in [7] (500 g ai/ha, 0 to 100 scale, 0 is no effect, 100 is complete control, read-out: Ragweed plant response rating), 30%; in assay [8] (500 g ai/ha, 0 to 100 scale, 0 is no effect, 100 is complete control, read-out: Ryegrass, Italian plant response rating) it was 40%. Further, the plant injury at 125 g/ha worked out at 20% with corn (Zea mays) (visual injury on 0 to 100 scale (0 no effect, 100 complete control), approx. 10 d, read-out: Corn plant response rating) and 0% in assay [9] (visual injury on 0 to 100 scale (0 no effect, 100 complete control), approx. 10 d, read-out: Wheat plant response rating). In addition, the plant injury at 500 g/ha in the assay on corn (Zea mays) (500 g ai/ha, 0 to 100 scale, 0 is no effect, 100 is complete control, read-out: Corn plant response rating) stood at 40%; in assay [9] (500 g ai/ha, 0 to 100 scale, 0 is no effect, 100 is complete control, read-out: Wheat plant response rating), 70%. Moreover, the pest or weed control at 250 g/ha stood at 60% in assay [10] (setting [15]), 100% in assay [11] (setting [15]), 20% in the assay on rice (Oryra sativa) (setting [15]) and 0% in assay [12] (setting [15]).
